Results on 4 compounds are retold here after patent US4322416A, “10-Alkynyl steroids” (Merrell Dow Pharmaceuticals Inc., priority 1981, dated 1982).

“Also recorded” adds a separate entry of the source.

Experiment [1] concerns aromatase. The conditions noted are these: microsomal enzyme preparations from human placenta; cited from earlier work.
In experiment [2] the target is T1, aromatase (microsomal fraction from human placenta) (Homo sapiens, UniProt P11511).
T1 construct: microsomal fraction isolated from human placenta; from tissue; host or cells: human placenta, microsomal fraction
T1 sequence (P11511 1-503): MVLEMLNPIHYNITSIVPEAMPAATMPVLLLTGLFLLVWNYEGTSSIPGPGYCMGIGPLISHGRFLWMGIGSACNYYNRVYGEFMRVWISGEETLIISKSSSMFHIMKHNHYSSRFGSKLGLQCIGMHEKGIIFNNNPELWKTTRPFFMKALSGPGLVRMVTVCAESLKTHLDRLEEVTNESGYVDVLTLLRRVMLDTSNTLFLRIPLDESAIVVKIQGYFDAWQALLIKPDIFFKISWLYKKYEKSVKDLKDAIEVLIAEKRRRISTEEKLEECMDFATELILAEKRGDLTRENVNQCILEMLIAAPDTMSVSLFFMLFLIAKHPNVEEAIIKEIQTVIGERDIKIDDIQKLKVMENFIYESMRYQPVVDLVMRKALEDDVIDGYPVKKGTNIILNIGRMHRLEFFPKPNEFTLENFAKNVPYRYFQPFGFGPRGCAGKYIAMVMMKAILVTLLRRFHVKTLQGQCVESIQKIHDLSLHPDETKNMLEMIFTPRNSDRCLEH
Put plainly: biochemical. In kind it is biochemical. The method, then:
(§1) The aromatase inhibitory action of the compounds of the invention can be determined using a radioenzymatic assay. An aromatase enzyme preparation from the microsomal fraction isolated from human placenta is employed.
Assay buffer contains 100 mM KCl, 10 mM KH2 PO4, 10 mM dithiothreitol and 1 mM EDTA at pH 8.0. […] Aromatase requires NADPH as a cofactor, therefore a generating system is included which uses 0.5 mM NADP^+, 2.5 mM glucose-6-phosphate, and 1.0 unit/ml of glucose-6-phosphate dehydrogenase in assay buffer. The enzyme reaction is initiated by the addition of 700 μl of aromatase preparation, usually 50 μg microsomal protein per ml of assay buffer. These preparations are mixed using a vortex mixer and incubated for 30 minutes at 37° C. with 95% O2 :5% CO2 gas phase in a Dubinoff shaking incubator.
The enzymatic reaction is terminated by the addition of CHCl3. After vortexing 20 seconds, aqueous/organic emulsions are dispersed and phase separation achieved following centrifugation at 600×g for 10 minutes. Duplicate 500 μl samples of the upper aqueous phase of each incubation sample are added to 10×75 mm culture tubes. […] The radioactivity of ^3 H2 O resulting from liberated 1β and 2β tritium atoms during the enzymatic reaction is determined by counting for 10 minutes in a liquid scintillation counter. […]

Experiment [3] has as its target T2, aromatase (aromatase preparation; microsomal protein) (Homo sapiens, UniProt P11511).
T2 sequence (P11511 1-503): T1 sequence (P11511 1-503)
Put plainly: biochemical. How it is done:
as §1
In this assay, the inhibitor is preincubated with enzyme prior to assaying for enzyme activity in the presence of high substrate levels.
In the time-dependent assay, an amount of the enzyme inhibitor in 100 μl of the assay buffer described above which will provide assay concentrations which are approximately one and ten times the IC50 values are added to 35 ml centrifuge tubes containing 600 μl of the NADPH generating system described above. The preincubation is started by the addition of 700 μl of aromatase preparation, usually 500-800 μg of microsomal protein per ml of assay buffer. These preparations are mixed using a vortex mixer and incubated for 0, 10, 20 or 40 minutes at 25° C. […] Following vortexing, the enzyme incubation is continued for 10 minutes before being terminated by the addition of chloroform. The amount of radioactivity in the aqueous fraction is determined by scintillation procedures. […] Therefore, the present enzyme inhibition is expressed as a percentage: [100 percent minus percent enzyme activity of inhibitor].
Compounds which show time-dependent inhibition are then assayed to establish the inhibition constant, Ki, which is the apparent dissociation constant for the enzyme-inhibitor complex. This determination requires measurements at initial velocities of enzyme reaction. […] The enzyme half-life (t1/2) at these different inhibitor concentrations ([In]) is used to determine the Ki by the linear regression equation of the t1/2 vs. 1/[In]. The Ki is equivalent to the inhibitor concentration when t1/2 is equal to zero.

For experiment [4], the system named is implantation in mated rats. The conditions noted are these: cited from earlier work.
Experiment [5] concerns estrogen production required for ovulation. The conditions noted are these: rats; cited from earlier work.

As for `C[C@]12CCC(=O)C(O)=C1CC[C@@H]1[C@@H]2CC[C@]2(C)C(=O)CC[C@@H]12` [4-hydroxy-androst-4-ene-3,17-dione], the “identified as aromatase inhibitor” value in experiment [1] is listed as “identified as aromatase inhibitors”.
On to `C#CC[C@]12CCC(=O)C=C1CC[C@@H]1[C@@H]2CC[C@]2(C)C(=O)CC[C@@H]12` [10-(2-propynyl)estr-4-ene-3,17-dione], for which, in experiment [2], the midpoint of inhibition, the IC50, lay at 4.2 nM and the “enzyme affinity compared with known inhibitors” value is listed as “greater enzyme affinity than other known inhibitors; also recorded: superior to known aromatase inhibitors”. The compound also displayed an inhibition constant Ki in experiment [3] of 8.9 nM. Also, the “affinity for the enzyme site relative to that of the natural substrate testosterone” value in experiment [3] (Ki vs. Km of testosterone) is given as “five times greater”. Further, in experiment [3] (time-dependent inhibition, in words), the “irreversible binding to / irreversible inhibition of aromatase” value is recorded as “irreversibly bound to the enzyme”.
As for `C[C@]12C=CC(=O)C=C1C=C[C@@H]1[C@@H]2CC[C@]2(C)C(=O)CC[C@@H]12` [Androsta-1,4,6-triene-3,17-dione], in experiment [4], the preventing implantation entry is recorded as “effective in preventing implantation in mated rats”. Besides, the “identified as aromatase inhibitor” value in experiment [1] was “identified as aromatase inhibitors”.
For `CC(=O)OC1=C2CC[C@@H]3[C@H](CC[C@]4(C)C(=O)CC[C@@H]34)[C@@]2(C)CCC1=O` [4-acetoxy-androst-4-ene-3,17-dione], the “preventing estrogen production required for ovulation” value in experiment [5] is “effective in preventing estrogen production required for ovulation in rats”. Besides, the “identified as aromatase inhibitor” value in experiment [1] is reported as “identified as aromatase inhibitors”.

By IC50 is commonly meant the point on the concentration scale where inhibition reaches its midpoint. Lower therefore signals higher potency. The term Ki denotes a measure of affinity in units of concentration, obtained from inhibition or displacement. A lower Ki goes with tighter binding.
